We go through 29 compounds from patent US9902702B2, “Spirocycloheptanes as inhibitors of rock” (BRISTOL-MYERS SQUIBB COMPANY, priority 2014, dated 2018).

Molecules are shown by their SMILES. pIC50: −log10 of the molar value.

Chain of ROCK2 (O75116 whole entry, species assumed): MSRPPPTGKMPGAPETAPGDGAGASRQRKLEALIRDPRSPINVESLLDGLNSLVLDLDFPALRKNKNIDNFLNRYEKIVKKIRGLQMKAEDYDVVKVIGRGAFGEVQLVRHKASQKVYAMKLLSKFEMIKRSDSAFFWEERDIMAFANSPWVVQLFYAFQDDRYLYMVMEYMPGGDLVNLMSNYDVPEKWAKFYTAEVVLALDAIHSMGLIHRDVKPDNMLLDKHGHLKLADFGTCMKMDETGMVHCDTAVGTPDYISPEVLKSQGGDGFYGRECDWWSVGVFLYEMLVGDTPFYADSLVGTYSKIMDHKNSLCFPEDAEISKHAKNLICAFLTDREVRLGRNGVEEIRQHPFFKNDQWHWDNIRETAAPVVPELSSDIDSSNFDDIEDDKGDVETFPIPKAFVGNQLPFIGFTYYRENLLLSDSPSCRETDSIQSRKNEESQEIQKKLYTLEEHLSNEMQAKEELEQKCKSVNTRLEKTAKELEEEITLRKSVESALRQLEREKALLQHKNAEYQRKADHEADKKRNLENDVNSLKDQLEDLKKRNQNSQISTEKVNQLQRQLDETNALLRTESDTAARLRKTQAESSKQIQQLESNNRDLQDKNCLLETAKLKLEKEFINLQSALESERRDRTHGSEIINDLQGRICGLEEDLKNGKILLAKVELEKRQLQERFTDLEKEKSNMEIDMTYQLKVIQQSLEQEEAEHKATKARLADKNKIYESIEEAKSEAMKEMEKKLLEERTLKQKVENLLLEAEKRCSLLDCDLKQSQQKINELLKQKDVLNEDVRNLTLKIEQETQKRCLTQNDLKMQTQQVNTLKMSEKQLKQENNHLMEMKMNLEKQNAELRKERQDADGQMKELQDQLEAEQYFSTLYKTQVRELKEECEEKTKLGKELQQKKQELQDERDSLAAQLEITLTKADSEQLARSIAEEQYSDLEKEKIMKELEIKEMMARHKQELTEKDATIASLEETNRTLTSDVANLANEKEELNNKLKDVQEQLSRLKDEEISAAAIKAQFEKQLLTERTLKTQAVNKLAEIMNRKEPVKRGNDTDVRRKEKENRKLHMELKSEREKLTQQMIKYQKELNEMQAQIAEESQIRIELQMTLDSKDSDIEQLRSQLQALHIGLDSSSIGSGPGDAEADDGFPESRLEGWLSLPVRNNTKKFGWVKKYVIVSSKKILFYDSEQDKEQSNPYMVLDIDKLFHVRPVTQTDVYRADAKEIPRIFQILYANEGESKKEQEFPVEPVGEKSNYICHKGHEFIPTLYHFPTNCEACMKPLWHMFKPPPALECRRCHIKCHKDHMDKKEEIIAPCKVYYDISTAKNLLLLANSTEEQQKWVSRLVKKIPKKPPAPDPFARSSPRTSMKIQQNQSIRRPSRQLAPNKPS

The experiment has as its target ROCK2 (Homo sapiens, UniProt O75116). In words: ROCK assay: phosphorylation of FITC peptide substrate, LABCHIP 3000 mobility shift. To be noted: 5 μM ATP, 1.5 μM peptide substrate; read-out: ROCK2 Activity (ROCK IC50 range). Type of experiment: biochemical. Put shortly:
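IC50 values come from curve-fitting percent kinase inhibition across a compound dilution series. The reaction is started with Rho kinase variant in HEPES pH 7.5 buffer with MgCl2, Brij-35 and DTT, with 5 μM ATP, 1.5 μM FITC-labelled peptide and under 2% DMSO. After EDTA quench, product and substrate are separated by microfluidic mobility shift.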
In general, pIC50 refers to −log10 of the IC50, conventionally taken in molar units. Turning to `[H][C@]1(c2n[nH]c(=O)c3ccccc32)C[C@]2(C[C@@H](NC(=O)c3cccc(-c4cc[nH]n4)c3)C2)C1` (stereo partly drawn) [Example 361, N-((aR)-6-(4-oxo-3,4-dihydrophthalazin-1-yl)spiro[3.3]heptan-2-yl)-3-(1H-pyrazol-3-yl)benzamide], the pIC50 was 7.82 to 8.29.
For `[H][C@]1(c2n[nH]c(=O)c3ccccc32)C[C@]2(C[C@@H](NC(=O)c3cn4cccc(C)c4n3)C2)C1` (stereo partly drawn) [Example 362, 8-methyl-N-((aR)-6-(4-oxo-3,4-dihydrophthalazin-1-yl)spiro[3.3]heptan-2-yl)imidazo[1,2-a]pyridine-2-carboxamide] the value was 7.00 to 7.82; for `[H][C@]1(c2n[nH]c(=O)c3ccccc32)C[C@]2(C[C@@H](NC(=O)c3cn4cc(Br)ccc4n3)C2)C1` (stereo partly drawn) [Example 363, 6-bromo-N-((aR)-6-(4-oxo-3,4-dihydrophthalazin-1-yl)spiro[3.3]heptan-2-yl)imidazo[1,2-a]pyridine-2-carboxamide], 7.00 to 7.82.
For `[H][C@]1(c2n[nH]c(=O)c3ccccc32)C[C@]2(C[C@@H](NC(=O)c3cn(C)c4ccccc34)C2)C1` (stereo partly drawn) [Example 364, 1-methyl-N-((aR)-6-(4-oxo-3,4-dihydrophthalazin-1-yl)spiro[3.3]heptan-2-yl)-1H-indole-3-carboxamide] the value was 7.82 to 8.29; for `[H][C@]1(c2n[nH]c(=O)c3ccccc32)C[C@]2(C[C@@H](NC(=O)c3nc(-c4ccncc4)sc3C)C2)C1` (stereo partly drawn) [Example 365, 5-methyl-N-((aR)-6-(4-oxo-3,4-dihydrophthalazin-1-yl)spiro[3.3]heptan-2-yl)-2-(pyridin-4-yl)thiazole-4-carboxamide], 7.00 to 7.82; for `[H][C@]1(c2n[nH]c(=O)c3ccccc32)C[C@]2(C[C@@H](NC(=O)c3ccc4cnn(C)c4c3)C2)C1` (stereo partly drawn) [Example 366, 1-methyl-N-((aR)-6-(4-oxo-3,4-dihydrophthalazin-1-yl)spiro[3.3]heptan-2-yl)-1H-indazole-6-carboxamide], 7.82 to 8.29.
On to `[H][C@]1(c2n[nH]c(=O)c3ccccc32)C[C@]2(C[C@@H](NC(=O)c3ccc4ccn(C)c4c3)C2)C1` (stereo partly drawn) [Example 367, 1-methyl-N-((aR)-6-(4-oxo-3,4-dihydrophthalazin-1-yl)spiro[3.3]heptan-2-yl)-1H-indole-6-carboxamide], for which the pIC50 is 7.82 to 8.29.
Take `[H][C@]1(c2n[nH]c(=O)c3ccccc32)C[C@]2(C[C@@H](NC(=O)c3ccc4c(ccn4C)c3)C2)C1` (stereo partly drawn) [Example 368, 1-methyl-N-((aR)-6-(4-oxo-3,4-dihydrophthalazin-1-yl)spiro[3.3]heptan-2-yl)-1H-indole-5-carboxamide]: the pIC50 was 7.82 to 8.29.
For `[H][C@]1(c2n[nH]c(=O)c3ccccc32)C[C@]2(C[C@@H](NC(=O)c3ccc(N4CCCC4)cn3)C2)C1` (stereo partly drawn) [Example 369, N-((aR)-6-(4-oxo-3,4-dihydrophthalazin-1-yl)spiro[3.3]heptan-2-yl)-5-(pyrrolidin-1-yl)picolinamide] the value was 7.00 to 7.82.
For `[H][C@]1(c2n[nH]c(=O)c3ccccc32)C[C@]2(C[C@@H](NC(=O)c3ccc(C(F)(F)F)cn3)C2)C1` (stereo partly drawn) [Example 370, N-((aR)-6-(4-oxo-3,4-dihydrophthalazin-1-yl)spiro[3.3]heptan-2-yl)-5-(trifluoromethyl) picolinamide] the value was 7.82 to 8.29; for `[H][C@]1(c2n[nH]c(=O)c3ccccc32)C[C@]2(C[C@@H](NC(=O)c3ccc(C#N)c(C)n3)C2)C1` (stereo partly drawn) [Example 371, 5-cyano-6-methyl-N-((aR)-6-(4-oxo-3,4-dihydrophthalazin-1-yl)spiro[3.3]heptan-2-yl)picolinamide], 7.00 to 7.82.
Regarding `[H][C@]1(c2n[nH]c(=O)c3ccccc32)C[C@]2(C[C@@H](NC(=O)c3[nH]c4c(OC)cccc4c3C)C2)C1` (stereo partly drawn) [Example 372, 7-methoxy-3-methyl-N-((aR)-6-(4-oxo-3,4-dihydrophthalazin-1-yl)spiro[3.3]heptan-2-yl)-1H-indole-2-carboxamide], the pIC50 was 7.00 to 7.82.
The result for `[H][C@]1(c2n[nH]c(=O)c3ccccc32)C[C@]2(C[C@@H](NC(=O)c3ccc4c(cnn4C)c3)C2)C1` (stereo partly drawn) [Example 373, 1-methyl-N-((aR)-6-(4-oxo-3,4-dihydrophthalazin-1-yl)spiro[3.3]heptan-2-yl)-1H-indazole-5-carboxamide] reads 7.00 to 7.82; that for `[H][C@]1(c2n[nH]c(=O)c3ccccc32)C[C@]2(C[C@@H](NC(=O)c3cn4ccc(Br)cc4n3)C2)C1` (stereo partly drawn) [Example 374, 7-bromo-N-((aR)-6-(4-oxo-3,4-dihydrophthalazin-1-yl)spiro[3.3]heptan-2-yl)imidazo[1,2-a]pyridine-2-carboxamide], 7.00 to 7.82; that for `[H][C@]1(c2n[nH]c(=O)c3ccccc32)C[C@]2(C[C@@H](NC(=O)c3ccc(Br)cn3)C2)C1` (stereo partly drawn) [Example 375, 5-bromo-N-((aR)-6-(4-oxo-3,4-dihydrophthalazin-1-yl)spiro[3.3]heptan-2-yl)picolinamide], 7.00 to 7.82.
The result for `[H][C@]1(c2n[nH]c(=O)c3ccccc32)C[C@]2(C[C@@H](NC(=O)c3cn4ccccc4n3)C2)C1` (stereo partly drawn) [Example 377, N-((aR)-6-(4-oxo-3,4-dihydrophthalazin-1-yl)spiro[3.3]heptan-2-yl)imidazo[1,2-a]pyridine-2-carboxamide] reads 7.00 to 7.82; that for `[H][C@]1(c2n[nH]c(=O)c3ccccc32)C[C@]2(C[C@@H](NC(=O)c3cnc4cc(N5CCN(C)CC5)ccn34)C2)C1` (some centres unmarked) [Example 378], 8.70 to 9.70; that for `[H][C@]1(c2n[nH]c(=O)c3ccccc32)C[C@]2(C[C@@H](NC(=O)c3cnc4cc(C#N)ccn34)C2)C1` (stereo partly drawn) [Example 379, 7-cyano-N-((aR)-6-(4-oxo-3,4-dihydrophthalazin-1-yl)spiro[3.3]heptan-2-yl)imidazo[1,2-a]pyridine-3-carboxamide], 7.82 to 8.29.
The result for `[H][C@]1(c2n[nH]c(=O)c3ccccc32)C[C@]2(C[C@@H](NC(=O)c3cnc4c(C#N)cccn34)C2)C1` (stereo partly drawn) [Example 380, 8-cyano-N-((aR)-6-(4-oxo-3,4-dihydrophthalazin-1-yl)spiro[3.3]heptan-2-yl)imidazo[1,2-a]pyridine-3-carboxamide] reads 7.82 to 8.29; that for `[H][C@]1(c2n[nH]c(=O)c3ccccc32)C[C@]2(C[C@@H](NC(=O)c3cnc4c(C(F)(F)F)cccn34)C2)C1` (stereo partly drawn) [Example 381, N-((aR)-6-(4-oxo-3,4-dihydrophthalazin-1-yl)spiro[3.3]heptan-2-yl)-8-(trifluoro-methyl)imidazo[1,2-a]pyridine-3-carboxamide], 8.30 to 8.70.
For `[H][C@]1(c2n[nH]c(=O)c3ccccc32)C[C@]2(C[C@@H](NC(=O)c3cnc4c(Cl)cccn34)C2)C1` (stereo partly drawn) [Example 382, 8-chloro-N-((aR)-6-(4-oxo-3,4-dihydrophthalazin-1-yl)spiro[3.3]heptan-2-yl)imidazo[1,2-a]pyridine-3-carboxamide], the pIC50 was 8.30 to 8.70.
For `[H][C@]1(c2n[nH]c(=O)c3ccccc32)C[C@]2(C[C@@H](NC(=O)c3cnc4cc(-c5ccccc5)ccn34)C2)C1` (stereo partly drawn) [Example 383, N-((aR)-6-(4-oxo-3,4-dihydrophthalazin-1-yl)spiro[3.3]heptan-2-yl)-7-phenylimidazo[1,2-a]pyridine-3-carboxamide] the value was 8.70 to 9.70.
In the case of `[H][C@]1(c2n[nH]c(=O)c3ccccc32)C[C@]2(C[C@@H](NC(=O)c3cnc4cc(OCc5ccccc5)ccn34)C2)C1` (stereo partly drawn) [Example 384, 7-(benzyloxy)-N-((aR)-6-(4-oxo-3,4-dihydrophthalazin-1-yl)spiro[3.3]heptan-2-yl)imidazo[1,2-a]pyridine-3-carboxamide], the pIC50 is 8.70 to 9.70.
For the compound `[H][C@]1(c2n[nH]c(=O)c3ccccc32)C[C@]2(C[C@@H](NC(=O)c3cnc4cc(OC)ccn34)C2)C1` (stereo partly drawn) [Example 385, 7-methoxy-N-((aR)-6-(4-oxo-3,4-dihydrophthalazin-1-yl)spiro[3.3]heptan-2-yl)imidazo[1,2-a]pyridine-3-carboxamide], the pIC50 is 8.70 to 9.70.
For `[H][C@]1(c2n[nH]c(=O)c3ccccc32)C[C@]2(C[C@@H](NC(=O)c3cnc4c(Cl)c(C)ccn34)C2)C1` (stereo partly drawn) [Example 386, 8-chloro-7-methyl-N-((aR)-6-(4-oxo-3,4-dihydro-phthalazin-1-yl)spiro[3.3]heptan-2-yl)imidazo[1,2-a]pyridine-3-carboxamide] the value was 8.30 to 8.70; for `[H][C@]1(c2n[nH]c(=O)c3ccccc32)C[C@]2(C[C@@H](NC(=O)c3cnc4cc(F)ccn34)C2)C1` (stereo partly drawn) [Example 387, 7-fluoro-N-((aR)-6-(4-oxo-3,4-dihydrophthalazin-1-yl)spiro[3.3]heptan-2-yl)imidazo[1,2-a]pyridine-3-carboxamide], 8.30 to 8.70; for `[H][C@]1(c2n[nH]c(=O)c3ccccc32)C[C@]2(C[C@@H](NC(=O)c3nc(C(C)C)n4c3CCCC4)C2)C1` (stereo partly drawn) [Example 388, 3-isopropyl-N-((aR)-6-(4-oxo-3,4-dihydrophthalazin-1-yl)spiro[3.3]heptan-2-yl)-5,6,7,8-tetrahydro-imidazo[1,5-a]pyridine-1-carboxamide], 8.30 to 8.70.
`[H][C@]1(c2n[nH]c(=O)c3ccccc32)C[C@]2(C[C@@H](NC(=O)c3nnc4ccccn34)C2)C1` (stereo partly drawn) [Example 389, N-((aR)-6-(4-oxo-3,4-dihydrophthalazin-1-yl)spiro[3.3]heptan-2-yl)-[1,2,4]triazolo[4,3-a]pyridine-3-carboxamide]: the negative-log IC50 (pIC50) was 7.82 to 8.29.
For `[H][C@]1(c2n[nH]c(=O)c3ccccc32)C[C@]2(C[C@@H](NC(=O)c3cnc4ccc(C(F)(F)F)cn34)C2)C1` (stereo partly drawn) [Example 390, N-((aR)-6-(4-oxo-3,4-dihydrophthalazin-1-yl)spiro[3.3]heptan-2-yl)-6-(trifluoro-methyl)imidazo[1,2-a]pyridine-3-carboxamide] the value was 7.82 to 8.29.
